Measured values reported in paper PMC6430685 (Nature chemical biology, 2019).

Molecular target: BAX (Homo sapiens, UniProt Q07812)
Assay type: biochemical

BAX, sequence (Q07812 whole entry): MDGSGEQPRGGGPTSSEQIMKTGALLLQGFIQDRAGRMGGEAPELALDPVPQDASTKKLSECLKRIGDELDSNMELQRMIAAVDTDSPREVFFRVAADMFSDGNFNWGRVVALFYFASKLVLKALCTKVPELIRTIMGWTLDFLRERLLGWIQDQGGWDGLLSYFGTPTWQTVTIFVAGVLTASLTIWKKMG

## OC(CN1CCNCC1)Cn1c2ccccc2c2ccccc21 (stereo not shown) [BAI3]
  fold lower activity compared to BAI1: ~ 7 fold
